From the supplement of paper PMC4977894
± gives the standard deviation of the averaged measurements.

Tests used:
[1] = tested on: Homo sapiens (human subject panel, olfactory perception); experiment: perceived odor familiarity rating (rating 0-100); higher = more familiar
Procedure, shortened: (§1)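 Stimuli were molecules diluted in paraffin oil at high and low concentrations, with 1 mL of each sniffed in randomized order across ten visits of 100 stimuli. Participants were 55 healthy humans aged 18–50, excluding the six lowest performers. Subjects who smelled a stimulus moved a computerized slider away from its starting point of 50, and positions were rescaled to 0–100. Familiarity, intensity and pleasantness are each reported as an average over subjects.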

[2] = tested on: Homo sapiens (human subject panel, olfactory perception); experiment: perceived odor intensity rating (rating 0-100); higher = stronger perceived smell
Procedure, shortened: as §1

[3] = tested on: Homo sapiens (human subject panel, olfactory perception); experiment: perceived odor pleasantness rating (rating 0-100); higher = more pleasant
Procedure, shortened: as §1

[4] = odor dilution in paraffin oil: 1/1,000
[5] = odor dilution in paraffin oil: 1/100,000
[6] = odor dilution in paraffin oil: 1/10,000,000
[7] = odor dilution in paraffin oil: 1/10

Compound	perceived odor familiarity rating [1, 4]	perceived odor familiarity rating [1, 5]	perceived odor intensity rating [2, 4]	perceived odor intensity rating [2, 5]	perceived odor pleasantness rating [3, 4]	perceived odor pleasantness rating [3, 5]	perceived odor familiarity rating [1, 6]	perceived odor intensity rating [2, 6]	perceived odor pleasantness rating [3, 6]	perceived odor familiarity rating [1, 7]	perceived odor intensity rating [2, 7]	perceived odor pleasantness rating [3, 7]
CC(=O)OC(C)C [isopropyl acetate]	40.1 ± 30	47.6 ± 27	13.3 ± 20	20.2 ± 23	51.5 ± 21	50 ± 23						
CC(C)CC(=O)O [isovaleric acid]		54.3 ± 33		82 ± 20		12.9 ± 19	48 ± 31	58.5 ± 30	20.7 ± 22			
CC1(C)C(=O)[C@@]2(C)CC[C@H]1C2 [l-fenchone]	58.3 ± 31	33.1 ± 32	64.5 ± 31	9.45 ± 15	44.6 ± 28	49.3 ± 26						
C=CC1(C)CCC(C(C)(C)O)O1 (stereo not drawn) [linalool oxide]	42.8 ± 31	37 ± 28	44.4 ± 31	15.9 ± 19	46.5 ± 26	49.6 ± 19						
COc1cccc(C=O)c1 [m-Anisaldehyde]	47.4 ± 29	41.3 ± 30	48.7 ± 31	12.2 ± 19	53 ± 24	54 ± 25						
CO [methanol]	30.9 ± 25		18 ± 24		42.7 ± 22					37.9 ± 29	35 ± 30	39.5 ± 23
COC(=O)c1ccco1 [methyl 2-furoate]	43.2 ± 29	39.5 ± 28	62.6 ± 25	33.8 ± 34	37.2 ± 24	48.7 ± 22						
COC(C)=O [methyl acetate]	29.6 ± 31		23.9 ± 29		36.4 ± 19					57.2 ± 28	66.2 ± 28	26.9 ± 20
COC(=O)c1ccccc1 [methyl benzoate]		35.1 ± 32		36.1 ± 30		45.9 ± 23	38 ± 32	14.2 ± 22	47.8 ± 23			
CCCCCC(=O)OC [methyl caproate]	56.4 ± 31	36.3 ± 31	68.4 ± 26	30.5 ± 29	56.2 ± 29	51.8 ± 22						
C/C=C/c1ccc(OC)c(OC)c1 [methyl isoeugenol]	48.2 ± 31	30.1 ± 24	37.9 ± 31	25.4 ± 35	58.8 ± 26	39.5 ± 23						
COC(=O)c1ccccc1O [methyl salicylate]	63.9 ± 32	38.1 ± 32	71.9 ± 22	16.7 ± 22	60.8 ± 26	56.7 ± 21						
CSC [methyl sulfide]	43.7 ± 34	47.3 ± 32	56.4 ± 35	58.8 ± 32	33.6 ± 27	33.4 ± 27						
CC(=O)c1c(C)c([N+](=O)[O-])c(C(C)(C)C)c([N+](=O)[O-])c1C [musk ketone]	50.2 ± 27		49.3 ± 32		63.1 ± 25					53 ± 30	48.1 ± 34	65.2 ± 23
CCCCCCCCCO [nonanol]	46.9 ± 29	35.6 ± 31	66.4 ± 26	28.5 ± 30	35.8 ± 24	42.9 ± 25						
COc1ccccc1C=O [o-Anisaldehyde (replicate)]	50.7 ± 31	46 ± 29	72.1 ± 23	36 ± 32	40.8 ± 28	40.3 ± 24						
COc1ccccc1C=O [o-Anisaldehyde]	45.8 ± 27	41.2 ± 27	70 ± 25	38.5 ± 27	32 ± 22	38 ± 22						
Cc1ccccc1C=O [o-Tolualdehyde]	58.9 ± 32	49.1 ± 31	78.1 ± 21	37.2 ± 31	52.7 ± 30	60.2 ± 24						
Cc1ccccc1S [o-Toluenethiol]		54.8 ± 28		72.8 ± 24		24.8 ± 24	36.9 ± 24	30.2 ± 31	47.9 ± 18			

Compound	perceived odor familiarity rating [1, 4]	perceived odor familiarity rating [1, 5]	perceived odor intensity rating [2, 4]	perceived odor intensity rating [2, 5]	perceived odor pleasantness rating [3, 4]	perceived odor pleasantness rating [3, 5]	perceived odor familiarity rating [1, 6]	perceived odor intensity rating [2, 6]	perceived odor pleasantness rating [3, 6]	perceived odor familiarity rating [1, 7]	perceived odor intensity rating [2, 7]	perceived odor pleasantness rating [3, 7]
CCCCCCCC=O [octanal]	50.5 ± 31	62.9 ± 29	66.7 ± 26	55 ± 28	33.1 ± 22	65 ± 25						
CCCCCCCCO [octanol]	51.7 ± 33	38.3 ± 26	65.6 ± 26	25 ± 27	49.9 ± 28	46.2 ± 24						
COc1ccc(C=O)cc1 [p-Anisaldehyde]	54.5 ± 30	49.2 ± 32	71.2 ± 22	45.9 ± 31	60 ± 25	69 ± 21						
CC(=O)Oc1ccc(C)cc1 [p-Tolyl acetate]	59.6 ± 28	46.8 ± 31	72.6 ± 19	60.9 ± 28	47 ± 26	29 ± 25						
Cc1ccc(O)cc1 [p-cresol]	55 ± 33	54.1 ± 31	79 ± 20	68 ± 30	32.3 ± 29	31.6 ± 26						
Cc1ccc(C(C)C)cc1 [para-cymene]	55.8 ± 32		66.4 ± 28		47.4 ± 26					54.7 ± 32	83.7 ± 15	37 ± 28
CCCCCO [pentanol]	46 ± 30	36.6 ± 28	68.4 ± 28	31.2 ± 32	23.9 ± 23	41.9 ± 26						
CCCCCOC(C)=O [pentyl acetate]	58.2 ± 33	45.2 ± 28	64.8 ± 30	42.6 ± 28	57.5 ± 32	57.6 ± 23						
O=Cc1ccc2c(c1)OCO2 [piperonal]	54.6 ± 30		42.5 ± 29		72 ± 20					64.5 ± 27	69.3 ± 22	70.9 ± 23
CCCO [propanol]	30.3 ± 21	48.1 ± 32	28.7 ± 28	26.8 ± 28	49.7 ± 20	50.1 ± 21						
CCC(=O)O [propionic acid (replicate)]		37.3 ± 30		38.6 ± 32		38.7 ± 20	44.1 ± 30	7.72 ± 8.4	36.7 ± 25			
CCC(=O)O [propionic acid]		35.3 ± 31		34.4 ± 33		39.5 ± 25	36.8 ± 25	20.5 ± 27	45.2 ± 24			
CCCOC(C)=O [propyl acetate]	55.1 ± 30	41.6 ± 28	43.8 ± 36	24.5 ± 26	43.5 ± 24	49 ± 20						
CCCOC(=O)CCC [propyl butyrate]	52.5 ± 27	39.4 ± 27	64.7 ± 27	36.7 ± 31	42.5 ± 27	33.6 ± 25						
CCCSCCC [propyl sulfide]		29.4 ± 28		28.1 ± 31		44.5 ± 28	34.7 ± 38	11.6 ± 12	40.7 ± 25			
c1cnccn1 [pyrazine]	35.4 ± 27	36.8 ± 28	18.9 ± 22	38.5 ± 32	44.8 ± 21	39.6 ± 24						
c1ccncc1 [pyridine]		33.7 ± 29		21.5 ± 23		46.8 ± 24	28 ± 28	13 ± 21	54.2 ± 25			
O=Cc1ccccc1O [salicylaldehyde]	51.7 ± 31	39.9 ± 28	77.9 ± 19	53.5 ± 28	30.6 ± 26	39.5 ± 23						
CC(C)(C)O [tert-butanol]	34.7 ± 29		24.8 ± 30		58.8 ± 22					47.5 ± 32	56 ± 32	44.9 ± 24
